Values joined by “and” are separate entries in the source; they are usually repeats but may differ in a detail not shown here. Identical values can stand only once.
Target: NusA-5HB (Severe acute respiratory syndrome coronavirus 2, UniProt P0DTC2)
Test: Competitive FP assays of small molecules
Type: binding, SARS-CoV-2
Details: IC50, 8 nM NusA-5HB, 5 nM HR2P-FL, 4% DMSO

| SMILES | IC50 |
| --- | --- |
| O=C(O)/C=C/c1ccc(O)c(O)c1 [caffeic acid, Caffeic acid] | 638 µM and ~638 µM |
| O=C(/C=C/c1ccc(O)c(O)c1/C=C/c1ccc(O)c(O)c1)O[C@H](Cc1ccc(O)c(O)c1)C(=O)O [Sal-A, Salvianolic acid A] | 3.9 µM and ~3.9 µM |

From article PMC8457910 (Bioorganic Chemistry, 2021)
